Test results reported in article PMC11915366 (ACS infectious diseases, 2025).

Columns and labels:
E. coli DH5αZ1 = test: Checkerboard FICI, E. coli DH5αZ1; type: cell-based
[1] = tested on: E. coli DH5αZ1+pZE24-Tet50; test: Checkerboard FICI, E. coli DH5αZ1+pZE24-Tet50; type: cell-based; details: combination with Tetracycline
E. coli DH5αZ1+pZE24 = test: Checkerboard FICI, E. coli DH5αZ1+pZE24; type: cell-based; details: combination with Tetracycline; E. coli DH5αZ1+pZE24 (empty vector)
[2] = tested on: E. coli DH5αZ1+pZE24-TetX7; test: Checkerboard FICI, E. coli DH5αZ1+pZE24-TetX7; type: cell-based; details: combination with Tetracycline
P. aeruginosa PA 27853 = test: Checkerboard FICI, P. aeruginosa PA 27853; type: cell-based
M. smegmatis mc^2155 = test: Checkerboard FICI, M. smegmatis mc^2155 expressing TetX-HA; type: cell-based; details: combination with Tetracycline
P. aeruginosa Pa-3 = test: Checkerboard FICI, P. aeruginosa Pa-3; type: cell-based
[3] = tested on: E. coli DH5αZ1 expressing TetX7 or Tet50 from pZE24 plasmid; test: MIC by microbroth dilution, inhibitor alone or with fixed 8 μg/mL TC; type: cell-based; details: fixed TC concentration of 8 μg/mL; inhibitor concentration needed to rescue TC activity
TetX7 = TetX7 (Pseudomonas aeruginosa, UniProt Q7X2A0); test: Apparent steady-state kinetics of NADPH consumption; type: biochemical; details: increasing inhibitor concentration, A340
Sequence of TetX7 (Q7X2A0 1-378): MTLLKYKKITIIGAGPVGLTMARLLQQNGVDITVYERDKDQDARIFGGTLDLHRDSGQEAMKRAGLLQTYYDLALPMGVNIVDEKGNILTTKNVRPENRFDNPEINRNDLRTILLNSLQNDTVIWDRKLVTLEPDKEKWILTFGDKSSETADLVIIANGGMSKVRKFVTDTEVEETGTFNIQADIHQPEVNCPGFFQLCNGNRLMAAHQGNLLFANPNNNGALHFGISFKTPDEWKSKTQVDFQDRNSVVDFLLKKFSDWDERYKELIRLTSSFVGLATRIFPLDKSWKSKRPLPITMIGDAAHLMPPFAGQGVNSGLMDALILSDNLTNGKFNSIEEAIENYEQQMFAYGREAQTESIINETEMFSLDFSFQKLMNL

[4] = tested on: E. coli DH5αZ1 expressing TetX7 or Tet50 from pZE24 plasmid; details: E. coli expressing TetX7 and Tet50; cited from earlier work
Tet50 = target: T1, Tet50 (Unknown prokaryotic organism, UniProt A0A059WYP6); details: Tet(50); cited from earlier work
T1 sequence (A0A059WYP6 1-388): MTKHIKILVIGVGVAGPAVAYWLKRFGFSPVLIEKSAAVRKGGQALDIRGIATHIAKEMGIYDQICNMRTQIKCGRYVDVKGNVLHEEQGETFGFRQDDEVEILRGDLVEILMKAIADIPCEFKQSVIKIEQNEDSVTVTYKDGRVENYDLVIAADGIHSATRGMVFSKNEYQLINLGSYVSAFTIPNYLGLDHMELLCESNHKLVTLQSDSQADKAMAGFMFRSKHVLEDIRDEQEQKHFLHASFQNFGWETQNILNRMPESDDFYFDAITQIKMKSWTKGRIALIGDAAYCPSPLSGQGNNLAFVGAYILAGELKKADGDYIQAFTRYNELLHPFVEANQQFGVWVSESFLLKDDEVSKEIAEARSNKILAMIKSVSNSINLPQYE

human red blood cells = type: cell-based; details: concentrations up to 500 μM (~250 μg/mL); 1 hour at 37 °C
[5] = type: in vitro ADME; details: E. coli cell lysate, 37 °C; LC-MS (A405 for acetate control)
[6] = combination with Tetracycline, P. aeruginosa PA 27853
[7] = combination with Tetracycline, P. aeruginosa PA 27853 (control lacking TetX7)
[8] = combination with Tigecycline, P. aeruginosa PA 27853

| SMILES | Effect (E. coli DH5αZ1; combination with Tetracycline) | Effect (E. coli DH5αZ1; combination with Tigecycline) | FICI (E. coli DH5αZ1; combination with Tigecycline) | Effect [1] | FICI [1] | Effect (E. coli DH5αZ1+pZE24) | FICI (E. coli DH5αZ1+pZE24) | Effect [2] | FICI [2] | Effect (P. aeruginosa PA 27853; [6]) | FICI (P. aeruginosa PA 27853; [7]) | Effect (P. aeruginosa PA 27853; [8]) | FICI (P. aeruginosa PA 27853; [8]) | Effect (M. smegmatis mc^2155) | FICI (M. smegmatis mc^2155) | Effect (P. aeruginosa Pa-3; combination with Tetracycline) | Effect (P. aeruginosa Pa-3; combination with Tigecycline) | MIC of inhibitor combined with TC [3] [µg/mL] | FICI (E. coli DH5αZ1; combination with Tetracycline) | other results |
| --- | --- | --- | --- | --- | --- | --- | --- | --- | --- | --- | --- | --- | --- | --- | --- | --- | --- | --- | --- | --- |
| Cc1c2c(c(O)c3c(OC(=O)c4ccccn4)cccc13)C(=O)[C@]1(O)C(=O)C(C(N)=O)=C(O)[C@@H](N(C)C)[C@@H]1C2 [Inhibitor 7] | Additive | Indifferent | >1 | Additive | 0.625 | Indifferent | 1.125 | Additive | 0.625 | Indifferent | >1 | Indifferent | >1 | Additive/Indifferent | 0.75–1 | Indifferent | Synergetic | 2 | – | – |
| Cc1c2c(c(O)c3c(OC(=O)c4cccnc4)cccc13)C(=O)[C@]1(O)C(=O)C(C(N)=O)=C(O)[C@@H](N(C)C)[C@@H]1C2 [Inhibitor 8] | Indifferent | Indifferent | >1 | Synergetic | 0.265 | Indifferent | 1 | Synergetic | 0.375 | Indifferent | >1 | Indifferent | >1 | Additive/Indifferent | 0.75–1 | Indifferent | Additive | 4 | >1 | Vmax of NADPH consumption (TetX7): 0.05 ± 0.02 min⁻¹ |
| CN(C)[C@@H]1C(O)=C(C(N)=O)C(=O)[C@@]2(O)C(O)=C3C(=O)c4c(O)cccc4[C@@](C)(O)[C@H]3C[C@@H]12 [TC, tetracycline] | – | – | – | – | – | – | – | – | – | – | – | – | – | – | – | – | – | – | – | MIC of TC [4]: > 8 µg/mL |
| Cc1c2c(c(O)c3c(O)cccc13)C(=O)[C@]1(O)C(=O)C(C(N)=O)=C(O)[C@@H](N(C)C)[C@@H]1C2 [aTC, anhydrotetracycline, reference compound] | Indifferent | Indifferent | >1 | – | – | – | – | – | – | Additive | – | Additive | – | Indifferent | 1 | Synergetic | Synergetic | – | >1 | Kapp of NADPH consumption (Tet50): 2.0 ± 0.3 µM; Hemolysis (human red blood cells): No hemolysis |
| CC(=O)Oc1ccc([N+](=O)[O-])cc1 [p-NO2-phenyl acetate] | – | – | – | – | – | – | – | – | – | – | – | – | – | – | – | – | – | – | – | Stability toward hydrolysis in cell lysate [5]: time- and lysate-dependent increase in A405 |
